In assay [1] the target is human full-length recombinant HDAC1 (Homo sapiens (Human), UniProt Q13547). In words: HDAC1 enzymatic activity assay (alternative protocol, Ac-Gly-Ala-Lys(Ac)-AMC). Particulars: 4 nM enzyme, read-out: HDAC1 biochem. The format is biochemical. The method, then: (§1) Inhibition of HDAC enzymes was performed in 384-well plate format using human full-length recombinant HDAC1 and HDAC6, isolated from a baculovirus expression system in Sf9 cells (BPS Bioscience). Reaction buffer for HDAC1 contained 50 mM Tris HCl pH 8.0, 137 mM NaCl, 2.7 mM KCl, 1 mM MgCl2, 0.1 mg/mL BSA, and reaction buffer for HDAC6 contained 50 mM Tris/HCl, pH 8.0, 137 mM NaCl, 2.7 mM KCl, 250 μM EDTA, 1 mM DTT, 0.1 mg/mL BSA. Compounds (dissolved in 100% DMSO) or DMSO (vehicle) were diluted in assay buffer at 3× final assay concentration and then added to assay plates. SAHA ([…]) was used as a positive control. 3× final assay concentration of recombinant enzymes (final assay concentration is 4 nM and 5 nM for HDAC1 and HDAC6, respectively) were preincubated for 10 minutes with test compounds at room temperature. Afterwards, 3× final assay concentration of an acetylated fluorogenic peptide (Ac-Gly-Ala-Lys(Ac))-AMC, Bachem; final assay concentration is 12 µM and 40 µM for HDAC1 and HDAC6, respectively) was added to assay plate, allowing deacetylase reactions to incubate for 60 minutes at room temperature. The developer reagent containing 5 μM SAHA and 50 μM trypsin was added to stop the deacetylase reaction and generate AMNC-fluorescence. 15 minutes after addition of developer reagent, endpoint measurements were taken using CLARIOstar (BMG Labtech) plate reader (excitation/emission: 360/450). Fluorescence signals were normalized for each plate using GraphPad Prism software: reaction HDAC-substrate in presence of DMSO was set to 100% while reaction HDAC-substrate in presence of 10 μM SAHA was set to 0%.

Assay [2] addresses catalytic domain 2 (CD2) of HDAC6 (Homo sapiens (Human), UniProt Q9UBN7). In words: Cellular target engagement assay - NanoBRET. The format is cell-based. Particulars: NanoLuc-HDAC6(CD2) in HEK293T cells, 2 hours, read-out: IC50 (HDAC6(CD2) interaction). (In general: Bioluminescence resonance energy transfer reports proximity on the nanometre scale.)
Assay [3] addresses human full-length recombinant HDAC6 (Homo sapiens (Human), UniProt Q9UBN7). The assay is described as follows: HDAC6 enzymatic activity assay (alternative protocol, Ac-Gly-Ala-Lys(Ac)-AMC). The format is biochemical. The conditions noted are these: 5 nM enzyme, read-out: HDAC6 biochem. The method, then: as §1

A value given as a limit tells only on which side of the number the result lay.

human full-length recombinant HDAC1, sequence (Q13547 whole entry): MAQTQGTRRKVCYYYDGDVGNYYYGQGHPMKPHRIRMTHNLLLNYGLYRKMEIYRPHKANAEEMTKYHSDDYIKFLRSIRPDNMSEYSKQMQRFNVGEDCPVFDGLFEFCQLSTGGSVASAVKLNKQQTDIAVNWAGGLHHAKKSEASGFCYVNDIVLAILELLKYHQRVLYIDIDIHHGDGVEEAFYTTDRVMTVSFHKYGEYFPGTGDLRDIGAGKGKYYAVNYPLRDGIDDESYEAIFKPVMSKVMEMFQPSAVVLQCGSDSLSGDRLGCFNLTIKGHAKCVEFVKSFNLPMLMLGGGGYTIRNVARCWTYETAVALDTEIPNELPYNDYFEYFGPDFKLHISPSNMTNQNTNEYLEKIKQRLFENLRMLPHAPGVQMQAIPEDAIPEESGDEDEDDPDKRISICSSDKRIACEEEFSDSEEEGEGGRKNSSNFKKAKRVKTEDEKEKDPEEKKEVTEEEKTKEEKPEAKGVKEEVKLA
human full-length recombinant HDAC6, sequence (Q9UBN7 whole entry): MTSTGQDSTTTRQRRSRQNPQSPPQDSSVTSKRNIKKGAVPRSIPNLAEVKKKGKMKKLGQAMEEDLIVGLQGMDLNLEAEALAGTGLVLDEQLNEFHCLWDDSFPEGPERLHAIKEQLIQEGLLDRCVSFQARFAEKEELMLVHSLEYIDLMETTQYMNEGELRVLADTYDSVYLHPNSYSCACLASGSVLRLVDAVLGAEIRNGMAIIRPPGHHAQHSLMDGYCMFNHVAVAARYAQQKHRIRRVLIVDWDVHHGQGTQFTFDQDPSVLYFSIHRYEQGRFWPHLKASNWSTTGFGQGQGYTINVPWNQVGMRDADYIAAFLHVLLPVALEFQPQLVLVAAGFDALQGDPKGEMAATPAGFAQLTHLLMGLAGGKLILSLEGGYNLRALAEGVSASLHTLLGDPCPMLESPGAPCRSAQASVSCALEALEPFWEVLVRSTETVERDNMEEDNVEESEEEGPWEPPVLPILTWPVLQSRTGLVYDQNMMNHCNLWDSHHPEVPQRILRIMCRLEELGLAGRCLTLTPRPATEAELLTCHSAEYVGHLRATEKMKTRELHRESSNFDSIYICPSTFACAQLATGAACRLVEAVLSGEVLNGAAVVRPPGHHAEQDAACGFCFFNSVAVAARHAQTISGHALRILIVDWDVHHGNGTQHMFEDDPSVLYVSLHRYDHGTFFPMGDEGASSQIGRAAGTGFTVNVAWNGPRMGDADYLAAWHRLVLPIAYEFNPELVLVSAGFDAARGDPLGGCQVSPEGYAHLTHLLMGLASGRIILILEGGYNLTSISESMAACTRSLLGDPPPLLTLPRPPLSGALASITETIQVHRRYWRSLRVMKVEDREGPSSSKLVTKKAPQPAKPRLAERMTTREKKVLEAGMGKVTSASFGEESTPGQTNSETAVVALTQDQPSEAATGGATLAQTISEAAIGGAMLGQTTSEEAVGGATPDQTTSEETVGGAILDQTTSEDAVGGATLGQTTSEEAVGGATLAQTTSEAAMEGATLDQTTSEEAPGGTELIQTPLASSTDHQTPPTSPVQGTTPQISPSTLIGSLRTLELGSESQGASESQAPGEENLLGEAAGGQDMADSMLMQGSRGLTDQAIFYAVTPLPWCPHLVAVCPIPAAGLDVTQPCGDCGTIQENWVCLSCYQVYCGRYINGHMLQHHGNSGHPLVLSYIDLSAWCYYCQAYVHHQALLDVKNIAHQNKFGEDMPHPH
catalytic domain 2 (CD2) of HDAC6, sequence (Q9UBN7 482-800): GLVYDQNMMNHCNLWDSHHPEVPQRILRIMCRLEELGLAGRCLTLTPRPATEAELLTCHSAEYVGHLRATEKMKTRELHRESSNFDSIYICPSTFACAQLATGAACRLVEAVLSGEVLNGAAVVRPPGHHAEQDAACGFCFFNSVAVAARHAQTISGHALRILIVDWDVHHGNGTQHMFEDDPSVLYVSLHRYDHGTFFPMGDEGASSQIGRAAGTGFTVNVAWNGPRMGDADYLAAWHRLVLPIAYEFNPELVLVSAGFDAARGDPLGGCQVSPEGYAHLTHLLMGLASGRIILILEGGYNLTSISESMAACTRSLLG

On to `Cn1ncc2c(SCC(=O)c3ccc(CNC(=O)Cc4ccccn4)s3)ncnc21` [Compound 55, N-((5-(2-((1-methyl-1H-pyrazolo[3,4-d]pyrimidin-4-yl)thio)acetyl)thiophen-2-yl)methyl)-2-(160yrrolid-2-yl)acetamide], for which the IC50 in assay [1] was over 10000 nM; in assay [2], 500 to 1000 nM; in assay [3], at most 100 nM.
Regarding `Cn1ncc2c(SCC(=O)c3ccc(CNC(=O)Cc4ccccc4)s3)ncnc21` [Example 32, N-((5-(2-((1-methyl-1H-pyrazolo[3,4-d]pyrimidin-4-yl)thio)acetyl)thiophen-2-yl)methyl)-2-phenylacetamide], the IC50 in assay [1] is over 10000 nM; in assay [3], at most 100 nM.
For the compound `COc1ccc2nc(C)nc(SCC(=O)c3ccc(CNC(=O)C4CC4)s3)c2c1` [Example 51, N-((5-(2-((6-methoxy-2-methylquinazolin-4-yl)thio)acetyl)thiophen-2-yl)methyl)cyclopropanecarboxamide], the IC50 in assay [2] lay within 100 to 500 nM.
Same read-out and setting: next, `O=C(CO)NCc1ccc(C(=O)CSc2nc(C(F)(F)F)nc3ccc(N4CCOCC4)cc23)s1` [Example 63]: 100 to 500 nM.
On the same count and under the same terms, to `CC(=O)NCCc1ccc(C(=O)CSc2nc(C3CC3)nc3ccccc23)s1` [Example 101, N-(2-(5-(2-((2-cyclopropylquinazolin-4-yl)thio)acetyl)thiophen-2-yl)ethyl)acetamide] belongs 100 to 500 nM; to `CC(=O)NCc1ccc(C(=O)CSc2ncnc3c2cnn3C)s1` [Example 103, N-((5-(2-((1-methyl-1H-pyrazolo[3,4-d]pyrimidin-4-yl)thio)acetyl)thiophen-2-yl)methyl)acetamide], 500 to 1000 nM.
`COc1ccc2nc(C)nc(SCC(=O)c3ccc(CCN4CCC(O)C4=O)s3)c2c1` (stereo not shown) [Example 115, 3-hydroxy-1-(2-(5-(2-((6-methoxy-2-methylquinazolin-4-yl)thio)acetyl)thiophen-2-yl)ethyl)pyrrolidin-2-one]: in assay [2], the IC50 was in the range of 500 to 1000 nM.
On to `COc1ccc2nc(C)nc(SCC(=O)c3ccc([C@H](C)NC(=O)CO)s3)c2c1` [Example 128, (S)-2-hydroxy-N-(1-(5-(2-((6-methoxy-2-methylquinazolin-4-yl)thio)acetyl)thiophen-2-yl)ethyl)acetamide], for which the IC50 in assay [2] was 100 to 500 nM.
The same measure, in the same setting: to `C[C@H](NC(=O)CO)c1ccc(C(=O)CSc2nc(C(F)(F)F)nc3c2cnn3C)s1` [Example 130, (S)-2-hydroxy-N-(1-(5-(2-((1-methyl-6-(trifluoromethyl)-1H-pyrazolo[3,4-d]pyrimidin-4-yl)thio)acetyl)thiophen-2-yl)ethyl)acetamide] belongs 100 to 500 nM; to `COc1ccc2nc(C)nc(SCC(=O)c3ccc(CN4CCOCC4=O)s3)c2c1` [Example 137, 4-((5-(2-((6-methoxy-2-methylquinazolin-4-yl)thio)acetyl)thiophen-2-yl)methyl)morpholin-3-one], 100 to 500 nM; to `COc1ccc2nc(C)nc(SCC(=O)c3ccc(CN4CCC(O)C4=O)s3)c2c1` (stereo not shown) [Example 141, 3-hydroxy-1-((5-(2-((6-methoxy-2-methylquinazolin-4-yl)thio)acetyl)thiophen-2-yl)methyl)pyrrolidin-2-one], 100 to 500 nM.
Regarding `O=C(CSc1nc(C(F)(F)F)nc2ncccc12)c1ccc(CN2CCCC2=O)s1` [Example 157, 1-((5-(2-((2-(trifluoromethyl)pyrido[2,3-d]pyrimidin-4-yl)thio)acetyl)thiophen-2-yl)methyl)pyrrolidin-2-one], the IC50 in assay [2] is at most 100 nM.
Consider `COc1cnc2nc(C)nc(SCC(=O)c3ccc(CN4CCOCC4=O)s3)c2c1` [Example 161, 4-((5-(2-((6-methoxy-2-methylpyrido[2,3-d]pyrimidin-4-yl)thio)acetyl)thiophen-2-yl)methyl)morpholin-3-one], for which, in assay [2], the IC50 fell in the range of 100 to 500 nM.
`O=C(CO)NCc1ccc(C(=O)CSc2nccc3cccnc23)s1` [Example 165, N-((5-(2-((1,7-naphthyridin-8-yl)thio)acetyl)thiophen-2-yl)methyl)-2-hydroxyacetamide]: the IC50 in assay [2] lay within 100 to 500 nM.
On the same count and under the same terms, to `O=C(CO)NCc1ccc(C(=O)CSc2nc3cc(Cl)cnc3[nH]2)s1` [Example 166, N-((5-(2-((6-chloro-3H-imidazo[4,5-b]pyridin-2-yl)thio)acetyl)thiophen-2-yl)methyl)-2-hydroxyacetamide] belongs 1000 to 10000 nM; to `COc1ccc2oc(SCC(=O)c3ccc(CNC(=O)CO)s3)nc2c1` [Example 167, 2-hydroxy-N-((5-(2-((5-methoxybenzo[d]oxazol-2-yl)thio)acetyl)thiophen-2-yl)methyl)acetamide], 1000 to 10000 nM; to `COc1cccc2oc(SCC(=O)c3ccc(CNC(=O)CO)s3)nc12` [Example 168, 2-hydroxy-N-((5-(2-((4-methoxybenzo[d]oxazol-2-yl)thio)acetyl)thiophen-2-yl)methyl)acetamide], 1000 to 10000 nM.
Consider `Cn1c(SCC(=O)c2ccc(CNC(=O)CO)s2)nc2ccccc21` [Example 169, 2-hydroxy-N-((5-(2-((1-methyl-1H-benzo[d]imidazol-2-yl)thio)acetyl)thiophen-2-yl)methyl)acetamide], for which the IC50 in assay [2] lay within 1000 to 10000 nM.
As to `Cc1ccc2oc(SCC(=O)c3ccc(CNC(=O)CO)s3)nc2c1` [Example 170, 2-hydroxy-N-((5-(2-((5-methylbenzo[d]oxazol-2-yl)thio)acetyl)thiophen-2-yl)methyl)acetamide], the IC50 in assay [2] lay in the range of 1000 to 10000 nM.
On to `COc1ccc2nc(SCC(=O)c3ccc(CNC(=O)CO)s3)[nH]c2n1` [Example 173, 2-hydroxy-N-((5-(2-((5-methoxy-3H-imidazo[4,5-b]pyridin-2-yl)thio)acetyl)thiophen-2-yl)methyl)acetamide], for which the IC50 in assay [2] fell in the range of 1000 to 10000 nM.
Still for that read-out and setting: next, `O=C(CO)NCc1ccc(C(=O)CSc2nc3cc(Cl)ccc3o2)s1` [Example 174, N-((5-(2-((5-chlorobenzo[d]oxazol-2-yl)thio)acetyl)thiophen-2-yl)methyl)-2-hydroxyacetamide]: 1000 to 10000 nM.
In the case of `O=C(CO)NCc1ccc(C(=O)CSc2nccn3ccnc23)s1` [Example 176, 2-hydroxy-N-((5-(2-(imidazo[1,2-a]pyrazin-8-ylthio)acetyl)thiophen-2-yl)methyl)acetamide], the IC50 in assay [2] is 1000 to 10000 nM.
Same read-out and setting: to `O=C(CO)NCc1ccc(C(=O)CSc2nccc3ncccc23)s1` [Example 179, N-((5-(2-((1,6-naphthyridin-5-yl)thio)acetyl)thiophen-2-yl)methyl)-2-hydroxyacetamide] belongs 100 to 500 nM; to `O=C(CO)NCc1ccc(C(=O)CSc2nccc3ccncc23)s1` [Example 180, N-((5-(2-((2,7-naphthyridin-1-yl)thio)acetyl)thiophen-2-yl)methyl)-2-hydroxyacetamide], 100 to 500 nM.
With `O=C(CO)NCc1ccc(C(=O)CSc2nccn3cncc23)s1` [Example 181, 2-hydroxy-N-((5-(2-(imidazo[1,5-a]pyrazin-8-ylthio)acetyl)thiophen-2-yl)methyl)acetamide], in assay [2], the IC50 lay in the range of 100 to 500 nM.
With `O=C(CO)NCc1ccc(C(=O)CSc2nccn3nccc23)s1` [Example 182, 2-hydroxy-N-((5-(2-(pyrazolo[1,5-a]pyrazin-4-ylthio)acetyl)thiophen-2-yl)methyl)acetamide], in assay [2], the IC50 was in the range of 1000 to 10000 nM.
As to `COc1ccc2nc(C)nc(SCC(=O)c3ccc(CNC(=O)N(C)C)s3)c2c1` [Example 189, 3-((5-(2-((6-methoxy-2-methylquinazolin-4-yl)thio)acetyl)thiophen-1-yl)methyl)-1,1-dimethylurea], the IC50 in assay [2] lay within 100 to 500 nM.
Same read-out and setting: to `COc1cnc2nc(C)nc(SCC(=O)c3ccc(CNC(=O)OC(C)(C)C)s3)c2c1` [Example 190, tert-butyl ((5-(2-((6-methoxy-2-methylpyrido[2,3-d]pyrimidin-4-yl)thio)acetyl)thiophen-2-yl)methyl)carbamate] belongs 100 to 500 nM.
Turning to `CC(C)(C)C(=O)NCc1ccc(C(=O)CSc2nc(C(F)(F)F)cc3ccccc23)s1` [Example 191, N-((5-(2-((3-(trifluoromethyl)isoquinolin-1-yl)thio)acetyl)thiophen-2-yl)methyl)pivalamide], the IC50 in assay [1] was over 10000 nM; in assay [3] it was 1000 to 10000 nM.
In the same order, the values of `Cn1ncc2c(SCC(=O)c3nnc(CNC(=O)C(C)(C)C)s3)ncnc21` [Example 192, N-((5-(2-(1-methyl-1H-pyrazolo[3,4-d]pyrimidin-4-ylthio)acetyl)-1,3,4-thiadiazol-2-yl)methyl)pivalamide] are 500 to 1000 nM and 100 to 500 nM.
Consider `CC(C)(C)C(=O)NCc1ccc(C(=O)CSc2nnc(C(F)(F)F)c3ccccc23)s1` [Example 195], for which the IC50 is over 10000 nM in assay [1] and at most 100 nM in assay [3].

For the origin of these results see patent US20250051319A1 (AUGUSTINE THERAPEUTICS, priority 2021, published 2025).
